The source of these data is patent US7393868B2, “AMPA receptor potentiators” (Eli Lilly and Company, priority 2005, dated 2008).

This experiment addresses T1, human iGluR4 (Homo sapiens, UniProt P48058).
T1 construct: expressed in transfected cells; host or cells: HEK293
The experiment can be described thus: Whole-cell voltage clamp potentiation of glutamate-evoked current in HEK293 cells stably expressing human iGluR4. To be noted: whole-cell voltage clamp at −60 mV, potentiation of current evoked by 1 mM glutamate, Hill equation fit. It counts as cell-based. An excerpt: HEK293 cells stably expressing human iGluR4(obtained as described in European Patent Application Publication No. EP-A1-0583917) are used in the electrophysiological characterization of AMPA receptor potentiators. The extracellular recording solution contains (in mM): 140 NaCl, 5 KCl, 10 HEPES, 1 MgCl2, 2 CaCl2, 10 glucose, pH=7.4 with NaOH, 295 mOsm kg−1. The intracellular recording solution contains (in mM): 140 CsCl, 1 MgCl2, 10 HEPES, (N-[2-hydroxyethyl]piperazine-N1-[2-ethanesulfonic acid]) 10 EGTA (ethylene-bis(oxyethylene-nitrilo)tetraacetic acid), pH=7.2 with CsOH, 295 mOsm kg−1. With these solutions, recording pipettes have a resistance of 2-3 MΩ. Using the whole-cell voltage clamp technique (Hamill et al. (1981) Pflügers Arch., 391: 85-100), cells are voltage-clamped at −60 mV and control current responses to 1 mM glutamate are evoked. Responses to 1 mM glutamate are then determined in the presence of test compound. Compounds are deemed active in this test if, at a test concentration of 10 μM or less, they produce a greater than 10% increase in the value of the current evoked by 1 mM glutamate.
In order to determine the potency of test compounds, the concentration of the test compound, both in the bathing solution and co-applied with glutamate, is increased in half log units until the maximum effect was seen. Data collected in this manner are fit to the Hill equation, yielding an EC50 value, indicative of the potency of the test compound. Reversibility of test compound activity is determined by assessing control glutamate 1 mM responses. Once the control responses to the glutamate challenge are re-established, the potentiation of these responses by 100 μM cyclothiazide is determined by its inclusion in both the bathing solution and the glutamate-containing solution. In this manner, the efficacy of the test compound relative to that of cyclothiazide can be determined.

T1 sequence (P48058 21-902): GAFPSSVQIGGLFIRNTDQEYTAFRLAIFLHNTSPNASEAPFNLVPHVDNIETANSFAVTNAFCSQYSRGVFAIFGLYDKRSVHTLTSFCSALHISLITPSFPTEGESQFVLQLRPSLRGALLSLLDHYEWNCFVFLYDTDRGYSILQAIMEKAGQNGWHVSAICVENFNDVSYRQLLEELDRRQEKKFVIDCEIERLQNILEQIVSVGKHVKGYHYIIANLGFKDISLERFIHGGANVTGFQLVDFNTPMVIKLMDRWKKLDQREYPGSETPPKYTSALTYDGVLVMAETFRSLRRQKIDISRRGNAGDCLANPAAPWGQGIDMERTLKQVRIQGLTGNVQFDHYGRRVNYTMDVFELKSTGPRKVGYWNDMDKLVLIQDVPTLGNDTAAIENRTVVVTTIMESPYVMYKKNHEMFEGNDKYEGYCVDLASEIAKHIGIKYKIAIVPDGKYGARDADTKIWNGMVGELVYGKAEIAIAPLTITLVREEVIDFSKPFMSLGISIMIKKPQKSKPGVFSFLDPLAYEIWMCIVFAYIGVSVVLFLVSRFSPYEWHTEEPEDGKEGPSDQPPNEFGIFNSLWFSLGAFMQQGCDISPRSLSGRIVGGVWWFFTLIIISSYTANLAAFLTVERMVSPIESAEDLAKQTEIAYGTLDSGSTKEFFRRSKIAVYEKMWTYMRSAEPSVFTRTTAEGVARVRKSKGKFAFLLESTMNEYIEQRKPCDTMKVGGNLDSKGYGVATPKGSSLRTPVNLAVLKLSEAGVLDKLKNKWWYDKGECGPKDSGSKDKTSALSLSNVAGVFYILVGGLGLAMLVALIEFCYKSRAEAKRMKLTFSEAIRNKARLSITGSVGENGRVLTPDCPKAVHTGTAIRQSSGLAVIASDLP

What is called EC50 is the concentration giving half of the maximal effect. Regarding `CC(C)S(=O)(=O)Nc1ccsc1-c1ccc(-c2ccc(C(=O)O)cc2C#N)cc1` [Example 72, 2-Cyano-4′-[3-(propane-2-sulfonylamino)-thiophen-2-yl]-biphenyl-4-carboxylic acid], the EC50 stood at 188 nM.
The same measure for `CC(C)S(=O)(=O)Nc1ccsc1-c1ccc(-c2cc(F)c(O)c(F)c2)cc1` [Example 11, Propane-2-sulfonic acid [2-(3′,5′-difluoro-4′-hydroxy-biphenyl-4-yl)-thiophen-3-yl]-amide]: 720 nM; for `CC(C)S(=O)(=O)Nc1cnccc1-c1ccc(-c2ccc(C(=O)O)cc2C#N)cc1` [Example 51, 2-Cyano-4′-[3-(propane-2-sulfonylamino)-pyridin-4-yl]-biphenyl-4-carboxylic acid]: 2460 nM; for `COc1cc(C(=O)O)ccc1-c1ccc(-c2ccccc2NS(=O)(=O)C(C)C)cc1` [Example 46, 2″-Methoxy-2-(propane-2-sulfonylamino)-[1,1′;4′,1″]terphenyl-4″-carboxylic acid]: 977 nM.
Regarding `CC(C)S(=O)(=O)Nc1ccsc1-c1ccc(-c2cc(F)c(O)c(F)c2C#N)cc1` [Example 56, Propane-2-sulfonic acid [2-(2′-cyano-3′,5′-difluoro-4′-hydroxy-biphenyl-4-yl)-thiophen-3-yl]-amide], the EC50 was 151 nM.
